Results on 2 compounds are retold here after patent publication US20010018209A1, “Cell compositions” (Takara Shuzo Co., Ltd., priority 1996, published 2001).

In series [1] the test system is fibroblasts, NIH/3T3 cells (ATCC CRL-1658). In words: Cell growth inhibitory activity, MTT, observed under a microscope. In kind it is cell-based. To be noted: 48 hours. The procedure:
(§1) (3) The fibroblasts, NIH/3T3 cells (ATCC CRL-1658), were dispersed with trypsin according to a conventional method and suspended in Dulbecco modified Eagle's culture medium containing 10% bovine serum at a concentration of 5× 10^4 cells/ml. Then, each 90 μl portion thereof was distributed into each well of a 96-well microtiter plate. To each well was added an aqueous solution (10 μl) of 15.6, 31.3, 62.5, 125, 250, 500 or 1,000 μM cyclopentenone, or water (10 μl) as a control and the cells on that plate were incubated at 37° C. for 48 hours in the presence of 5% CO2. Further, 5 mg/ml MTT phosphate buffered saline (10 μl) was added and the incubation was continued for additional 4 hours. Cell growth was observed under a microscope and the apoptosis inducing activity was estimated as cell growth inhibitory activity.

Series [2] has as its system HL-60 cells. In words: Cell growth inhibitory activity by MTT, absorbance at 590 nm (HL-60 compared with HUVEC). To be noted: final 1-100 μM, 48 hours. The series is classed as cell-based.
The next series deals with cancer cells. In words: Apoptosis after addition to a culture broth of cancer cells (general statement). The series is classed as cell-based. To be noted: within one to several days after addition.
Series [3] deals with HL-60 cells. Description: Cell growth inhibitory activity, MTT, observed under a microscope. The series is classed as cell-based. To be noted: 48 hours. Here is the method: as §1
The same procedure was repeated with respect to HL-60 cells except that the cells were cultured in RPMI1640 culture medium containing 10% fetal bovine serum.

The subject of the next series is normal cells. Description: Toxicity / apoptosis against normal cells (general statement). In kind it is cell-based.
Another series concerns mouse. In words: Toxicity on administration to mouse (general statement). To be noted: in vivo.
For series [4], the system named is Myeloma cells (P3X63Ag8U.1, ATCC CRL-1597). In words: Apoptosis induction / living cell number in cultured myeloma cells (trypan blue, microscope). The series is classed as cell-based. To be noted: 1 mg/ml, 60 hours. Here is the method: Myeloma cells (P3X63Ag8U.1, ATCC CRL-1597) were cultured at 37° C. in RPMI1640 culture medium (manufactured by Gibco) containing 10% fetal bovine serum (manufactured by JRH Bioscience) treated at 56° C. for 30 minutes and they were suspended in RPMI1640 culture medium containing 10% fetal bovine serum at a concentration of 2.5×10^5 cells/4.5 ml. On the other hand, a dextran sulfate (molecular weight: 0.5 million, manufactured by Oncor) was dissolved in 50 mM HEPES buffer (pH 7.0) containing 120 mM sodium chloride at a concentration of 10 mg/ml and sterilized by filtration. This solution (0.5 ml) was added to the above suspension (4.5 ml) and incubated at 37° C. for 60 hours in the presence of 5% CO2.
The incubated cells were observed under a microscope to examine the degree of growth and cell morphology. […] After initiation of incubation, the living cell number was counted with time by trypan blue staining.
Next, A dextran sulfate (molecular weight: 0.5 million, manufactured by Oncor) was dissolved in 50 mM HEPES buffer (pH 7.0) containing 120 mM sodium chloride in concentration of 10 mg/ml, and treated by heating at 120° C. for 20 minutes. According to the same manner as described above, apoptosis inducing activity was determined by using the dextran sulfate.

Take `O=C1C=CC(O)C1O` (centres unmarked) [cyclopentenone, 4,5-dihydroxy-2-cyclopenten-1-one]: the values for the cell growth entry (in series [1] (final concentration of 12.5 μM); in series [1] (final concentration of 25 μM); with HL-60 cells [3] (final concentration of 6.25 μM)) were “the same cell growth as that of the water-added control group”, “no cell growth was observed” and “no cell growth was observed”, respectively. Further, in the series on HL-60 cells [2], the “cell growth inhibitory activity, HL-60 compared with HUVEC” value is “stronger cell growth inhibitory activity to the cancer cells, HL-60 cells than that to the normal cells, HUVEC cells”. Further, in the series on cancer cells, the “apoptosis of cancer cells” value is “apoptosis of the cancer cells is caused”. Moreover, the “selectivity, tumor cell line HL-60 compared with non-tumor cell line NIH/3T3” value in the series with HL-60 cells [3] is “selective cell growth inhibitory activity and cytocidal activity”. Moreover, the cytocidal effect entry in the series on HL-60 cells [3] (final concentration of 6.25 μM) was “almost all the cells were killed”. Besides, the “toxicity against normal cells” value in the series on normal cells is recorded as “does not show any toxicity against normal cells”. The toxicity in mouse entry with mouse is “does not show any toxicity against mouse”.

As for dextran sulfate, in series [4], the apoptosis inducing activity entry was “strong apoptosis inducing activity” and the “cell morphology under a microscope (characteristics of apoptosis)” value is recorded as “exhibited characteristics of apoptosis such as cell shrinkage, cell nuclear fragmentation”.
